Experimental data published in US7235577B1 (priority 2000, dated 2007).

Columns and labels:
COS-7 chloride channel = assay: Selectivity patch clamp, native chloride channels in COS-7 cells; assay type: cell-based, African green monkey; settings: native chloride channel of COS-7 cells
Method: Electrophysiological experiments were carried out in the whole-cell configuration of the patch-clamp technique using an EPC-9 amplifier (HEKA Elektronik, Lambrecht Germany) interfaced to a computer running acquisition and analysis software (Pulse and Pulsfit; HEKA Elektronik). Pipettes were pulled from soft glass capillaries, coated with Sylgard (Dow-Corning, Midland, Mich.), and fire polished to resistances of 2.0–4.5 MΩ measured in the bath. COS-7 cells were trypsinized and plated on glass coverslips 3 h before measurement. […] To prevent activation of the native chloride channels in COS-7 cells an aspartate Ringer solution was used as an external solution (160 mM Na^+ aspartate, 4.5 mM KCl, 2 mM CaCl2, 1 mM MgCl2, 5 mM HEPES, adjusted to pH 7.4 with NaOH, with an osmolarity of 290–310 mosM). 200 ms voltage ramps from −120 mV to 40 mV every 10 s were used. The holding potential in all experiments was −80 mV. Series resistance compensation was not employed. The reduction of slope conductance at −80 mV was used to determine the Kd-value by fitting the values to the Hill equation with a Hill coefficient of unity.
Recordings from the Jurkat SKCa channel were made in K^+ aspartate Ringer (Na^+ was replaced by K^+) with the same internal pipette solution. […]

CYP3A4 = CYP3A4 (Homo sapiens, UniProt P08684); assay: in vitro; settings: human
Method: The test substances shown in Table 8 were evaluated for their inhibitory effect on the catalytic activity of human cytochrome P450 enzyme. Cytochrome P450 3A4 (CYP3A4) is involved in many drug-drug interactions and in many other pathways in the body including the catabolism of steroids and xenobiotics. Inhibition of this enzyme was measured in 96 well plates with 7-benzyloxy-4-trifluoro-methylcoumarin (BFC) as the substrate and cDNA-derived enzymes in microsomes prepared from baculovirus-infected insect cells.
The inhibition study consisted of the determination of inhibition by the test substance on CYP3A4 catalytic activity. […] The compounds were prepared as 10 mM stock solutions in acetonitrile. Metabolism of the model substrate was assayed by the production of 7-hydroxy-4-trifluoromethylcoumarin metabolite. The metabolite was detected by fluorescence.
Table 10 below provides a list of the name of enzymes examined, the catalog number of the microsomes used as a source of the enzyme, the concentration of the model substrate used, the amount of enzyme used, the final buffer concentration, and the positive control compound.
Assays were conducted in 96 well microtiter plates. The BFC substrate was initially prepared in acetonitrile. […] Six wells were used for one test. […] For the positive controls, 12 wells in a row were used for one test. The positive control inhibitor/enzyme combination was examined in duplicate rows. Wells 1 to 8 contained serial 1:3 dilutions of the inhibitors. The highest inhibitor concentration were as described in the table above. Wells 9 and 10 contained no inhibitor and wells 11 and 12 were blanks for background fluorescence (stop solution added before the enzyme).
After buffer, cofactors and inhibitor addition, the plates were pre-warmed to 37° C. Incubations were initiated by the addition of pre-warmed enzyme and substrate. The final cofactor concentrations were 1.3 mM NADP, 3.3 mM glucose-6-phosphate and 0.4 U/ml glucose-6-phosphate dehydrogenase. The final incubation volume was 0.2 ml. Incubations were carried out for 30 minutes [CYP3A4 (BFC)] and stopped by the addition of 0.075 ml of 80% acetonitrile-20% 0.5M Tris. Fluorescence per well was measured using a BMG FLUOstar fluorescence plate reader. The BFC metabolite 7-hydroxy-4-trifluoromethyl-coumarin was measured using an excitation wavelength of 410 nm and emission wavelength of 538 nm.

[1] = Hydrolytic stability by HPLC; settings: pH 5.0, 37° C.
Method: A Waters 590 liquid chromatograph with a Waters 746 integrator and a Waters 486 UVN is detector, and a 25 cm Lichrospher RP18 column (5-μM particle size) was used. The mobile phase consisted of K2HPO4 25 mM, KH2PO4 30 mM, methanol at 262:13:725. The chromatographic separation was performed at 20° C. with a flow rate of 1.0 ml/min, the absorbance of the elluent was monitored at 210 nm.
Hydrolysis profiles (10 μM compound with 20% acetonitrile) were carried out in Soerensen phosphate buffer (pH 7.4 and pH 5.0) in a total volume of 10 ml. 100 μl samples were collected 0, 1, 2, 3, 4, 5, 24, 48 and 72 hours after incubation, with shaking, in a waterbath at 37° C. and manually injected into the HPLC over Rheodyne 7125 system. For profiles at pH 1.0 artificial stomach fluid (DAB 9), containing 2 g NaCl, 3,2 g pepsin and 80 ml 1 M HCL in 1.0 L of water was used. After 0, 1 and 2 hours 400 μl of sample were collected and extracted three times with 500 μl of ethyl ether by vortexing. The combined extracts were than evaporated to dryness by passing nitrogen through the solution. The residue was than dissolved in 400 μl of mobile phase of which […] were injected in the HPLC.

Sequence of CYP3A4 (P08684 whole entry): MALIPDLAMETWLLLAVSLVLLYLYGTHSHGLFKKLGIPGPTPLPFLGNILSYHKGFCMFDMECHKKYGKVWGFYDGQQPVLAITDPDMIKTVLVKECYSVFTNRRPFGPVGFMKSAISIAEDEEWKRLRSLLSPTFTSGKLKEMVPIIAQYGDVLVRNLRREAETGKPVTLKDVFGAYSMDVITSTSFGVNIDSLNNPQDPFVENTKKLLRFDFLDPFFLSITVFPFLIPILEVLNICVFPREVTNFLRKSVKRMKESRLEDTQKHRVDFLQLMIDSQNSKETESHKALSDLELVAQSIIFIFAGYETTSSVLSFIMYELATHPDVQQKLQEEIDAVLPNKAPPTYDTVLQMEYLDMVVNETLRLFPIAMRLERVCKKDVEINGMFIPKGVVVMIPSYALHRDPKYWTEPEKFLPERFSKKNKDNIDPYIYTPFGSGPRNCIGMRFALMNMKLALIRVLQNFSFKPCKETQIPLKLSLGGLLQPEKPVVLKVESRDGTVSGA

Clc1ccccc1C(c1ccccc1)(c1ccccc1)n1ccnc1 [Clotrimazole, reference compound]
Block of COS-7 (Cl) (COS-7 chloride channel): no effect at 10 μM (n =
inhibition at 30 min, 0.1 μM (CYP3A4): 99%
hydrolysis: % T3 formed ([1]; after 48 h): 22%
hydrolysis: % T3 formed ([1]; after 72 h): 35%
